The values below come from US6242428A, “Nucleoside analogs and uses in treating Plasmodium falciparum infection” (Unisearch Limited, priority 1998, dated 2001).

Like-named read-outs stand apart in the source and are kept apart here.

One data set relates to P. falciparum. The data set is described as follows: In vitro toxicity against P. falciparum in culture (radiolabelled hypoxanthine incorporation / lactate dehydrogenase assay). In kind it is cell-based, Plasmodium falciparum, FCQ27. As for the experimental part:
P. falciparum, FCQ27, was maintained in culture using the techniques described by Trager & Jensen (W. Traqer and J. B. Jensen, Science, 193 673-675 (1976)). Cultures containing 2% hematocrit suspensions of parasitized human type O^+ erythrocytes in RPMI 1640 medium, supplemented with 25 mM HEPES-KOH, pH 7.2, 25 mM NaHCO3 and 10% human type O^+ serum (v/v) are maintained in modular incubator chambers at 37° C. in a gas mixture of 5% O2, 5% CO2 and 90% N2. The isolate of P. falciparum used in these experiments was FCQ27, routinely maintained in synchronized or asynchronous in vitro cultures at low hematocrit.
The potential toxicity of nucleoside analogues against P. falciparum in culture was tested in microtitre plates over the range of drug concentrations for 24 hours. The procedures for monitoring parasite viability is well established (A. M. Gero, H. V. Scott, W. J. O'Sullivan and R. I. Christopherson, Mol. Biochem. Parasitol. 34, 87-89 (1989)) and is based on radiolabelled hypoxanthine or isoleucine incorporation. The incorporation of [G-^3 H]hypoxanthine into the nucleic acids of P. falciparum was used to assess the viability of the parasite in vitro. Microculture plates were prepared with each well containing 225 μl of a 2% hematocrit culture of asynchronous parasited erythrocytes (1% parasitized cells). Each plate, containing varying concentrations of the drug to be studied (up to 200 μM final concentration for initial screen), was incubated for 24 h at 37° C. in a gas mixture of 5% O2, 5% CO2 and 90% N2, at which point [G-^3 H] hypoxanthine was added to each well and the incubation continued under identical conditions for a further 18-20 h. The control infected cells (i.e. without drug), routinely reached a parasitemia of 6-8% before harvesting. Expediency was aided by 96-well plate counter using lactate dehydrogenase for the drug susceptibility assay (L. K. Basco, F. Marguet, M. T. Makler and J. Lebbras, Exp. Parasitol. 80, 260-271 (1995); M. T. Makler and D. J. Hinrichs; Am. J. Trop. Med. Hyg. 48, 205-210 (1993)). This assay gave the identical results to the hypoxanthine technique. In addition, for each experiment, microscopic counting of Giemsa stained thin slides was used as a control.
The biological screen involved evaluation of the compounds against the protozoan P. falciparum in in vitro culture. The range of drug concentrations was used independently by two assays. One, radiolabelled hypoxanthine incorporation into the nucleic acid of P. falciparum, and the other, more expedient assay, a 96-well plate susceptibility assay using lactate dehydrogenase. Both assays gave identical results. In addition, microscopic counting of Giemsa stained thin slides was used as a control. Examples of experimental curves are attached as Appendix 2. The biological tests were done at several concentrations. The highest concentration was 200 μM, the compounds were considered active at concentrations less than 40 μM.

The subject of data set [1] is erythrocyte infected with P. falciparum. Conditions: cited from earlier work.
Data set [2] concerns normal erythrocytes and other cell types. Conditions: cited from earlier work.
Data set [3] relates to human prostate phosphotransferase. Conditions: cited from earlier work.
Data set [4] in a line: Solubility remark in the in vitro testing. Conditions: Tables 1 and 6.
Data set [5] has as its system P. falciparum strain W2 (chloroquin resistant). The data set is described as follows: U.S. Army Antimalarial Test Program in vitro screen, strain W2. It is filed as cell-based, Plasmodium falciparum. Conditions: 15 dimers, D6 and W2 stated together. From the text:
(§1) Fifteen L-nucleoside dimers (L-101, L-103, L-103A, L-107, L-110, L-111, L-112, L-114, L-117, L-120, L-122, L-124, L-125, L-133 & L-138) from Lipitek's library were submitted for in vitro screen to the U.S. Army Antimalarial Test Program (for the structures of the compounds, see FIG. 7). The compounds have been tested for their activity against two P. falciparum strains: D6 (chloroquin non-resistant) and W2 (chloroquin resistant).

Data set [6] relates to P. falciparum strain D6 (chloroquin non-resistant). The data set is described as follows: U.S. Army Antimalarial Test Program in vitro screen, strain D6. In kind it is cell-based, Plasmodium falciparum. Conditions: 15 dimers, D6 and W2 stated together.
Text: as §1

Data set [7] has as its system P. falciparum infected erythrocytes (trophozoites). It is filed as in vitro ADME, human erythrocytes infected with Plasmodium falciparum. Here is the method: (§2) The metabolism of the L-nucleoside conjugates was studied by HPLC analysis. The primary aim was to determine their ability to be catabolized by parasite purine salvage enzymes. Some effect on the purine metabolic pools was also observed.
(§3) For each HPLC determination 200 μL of packed cells of 80-90% trophozoite infected cells were used. These were isolated from in vitro cultures by synchronization of the parasites in in vitro cultures using sterile D-sorbitol (L. Lambros and J. P. Vanderberg, Parasitol. 65, 418-420 (1979)) followed by separation of the trophozoites from non infected erythrocytes by Percoll gradients as described previously (A. M. Gero, H. V. Scott, W. J. O'Sullivan and R. I. Christopherson, Mol. Biochem. Parasitol. 34, 87-89 (1989)). Trophozoites were incubated at 37° C. for 2 hours with each compound to be tested. Compounds were incubated with both whole infected cells as whole and lyzed uninfected normal erythrocytes to determine:
b) the metabolic effect within the cell (was the compound metabolized);
(§4) The metabolism of nucleosides with potential chemotherapeutic activity was assessed by the analysis of cytoplasmic samples by reverse phase ion-pair high performance liquid chromatography (R. S. Toguzov, Y. V. Tikhonov, A. M. Pimenov, V. Prokudin, Journal of Chromatography, I. Biomedical Appl. 434, 447-453 (1988)). Nucleotides, nucleosides and bases were separated by this HPLC method.
(§5) These compounds were chosen for the identification of possible metabolites. In this experiment the compounds were incubated with both whole infected cells, and with whole and lysed uninfected cells, followed by the separation of unreacted compound and HPLC analysis.

The test system is the same in data set [8]. It is filed as in vitro ADME, human erythrocytes infected with Plasmodium falciparum. Here is the method: as §2, §3
a) entry to the cell (whether they were transported);
Drug incubation was terminated by centrifugation through silicon oil using the method of Upston and Gero (J. M. Upston and A. M. Gero, Biochem. Biophys. Acta. 1236, 249-258 (1995)). This procedure separated intact trophozoites from extracellular non-transported drug solution.
as §4
It has been established that transport and uptake in parasite invaded cells is different from that of normal blood erythrocytes (A. M. Gero & A. M. Wood, In: Pyrine & Pyrimidine Methabolism in Man VII, Part A. (R. A. Harkness et al., Eds) Plenum Press, NY, 169-172 (1991)). Invasion by the malaria parasite comprises the cell membrane, allowing penetration of unnatural substances of various size and shape, whereas normal cells are very selective in uptake. It was shown that L-nucleosides and their derivatives easily penetrate invaded cells, while they have a very slow rate of uptake into normal cells, if they enter at all. In order to obtain preliminary data on transport, uptake and metabolism, the HPLC method was used to analyze the following 10 Lipitek compounds: L-101, L-103, L-109, L-111, L-117, L-133, L-138, GCl 1007, GCl 1027, GCl 1069.
as §5
This is another data set of the same source.

`Nc1ncnc2c1ncn2[C@H]1O[C@@H](CO)[C@H](O)[C@@H]1O` [GCI 1032, β-L-adenosine] returned an IC50 in the data set on P. falciparum (Plasmodium falciparum, 24 h) of more than 200 µM. For the same compound, the “transport into infected erythrocyte” value in data set [1] is listed as “selectively transported into an erythrocyte infected with P. falciparum”. Besides, the “permeability/uptake of normal erythrocytes and other cells” value in [2] is listed as “completely impermeable”.
As for `O=c1ccn([C@H]2O[C@@H](CO)[C@H](O)[C@@H]2O)c(=O)[nH]1` [β-L-uridine], in data set [3], the “phosphorylation at the 5'-position” value is on record as “not phosphorylated at the 5'-position”.
Consider α-L-FUdR 3'-5'SATE [B07], for which the “Solubility (printed in the IC50/ID50 column)” value in [4] was “Solubility problem”.
As to β-L-FUdR 3'-5'SATE [B05], the “Solubility (printed in the IC50/ID50 column)” value in data set [4] is reported as “Solubility problem”.
As for β-L-dG, β-D-FUdR [L-133], in the data set with P. falciparum, the “In vitro activity against P. falciparum, in words” value is recorded as “most active”. The IC50 on P. falciparum (Table 1, 24 h drug exposure, up to 200 μM, read-out: IC50) turned out to be 14 µM; at P. falciparum (Table 2, FUdR linkage position 5', read-out: IC50), 14 µM. In addition, the “toxicity against P. falciparum, in words” value with P. falciparum (statement in the transport and metabolism study) was “toxic against P. falciparum”. In addition, the “activity ranking in words, strain W2” value in [5] is “most active”. For the same compound, the “activity ranking in words, strain D6” value in data set [6] is “most active”. For the same compound, the “metabolism by the infected cells” value in [7] is “metabolized by the infected cells”. In addition, the “entry to the infected cell” value in data set [8] is “entered the infected cells”.
